Series [1] concerns the target T1, CYP2E1 (Rattus norvegicus, UniProt P05182, species not given). Nature of the series: Inhibition of chlorzoxazone 6-hydroxylation in CYP2E1 liver microsomes. As to conditions: human, microsomes, chlorzoxazone metabolism. In general terms: Liver microsomes are vesicles of endoplasmic reticulum, rich in cytochrome P450 enzymes.
Series [2] deals with T1, CYP2E1. Nature of the series: in vitro. As to conditions: human, microsomes.
Another series has as its target Rabbit CYP2E1 (Oryctolagus cuniculus, UniProt P08682). Nature of the series: Inhibition of p-nitrophenol hydroxylation by purified rabbit CYP2E1. Format: biochemical.
For series [3], the target named is CYP2E1 (Rattus norvegicus, UniProt P05182). Nature of the series: Inhibition of chlorzoxazone 6-hydroxylation in CYP2E1 liver microsomes. As to conditions: chlorzoxazone metabolism; for pKi: Log (1/Ki).
The mark [4] stands for this setting: Ki, substituted pyrazoles, purified rabbit CYP2E1, p-nitrophenol as substrate.
[5] abbreviates: pH 7.4, pKi±stdev, Table 3 test set.

Each structure is given as a SMILES string.

T1 sequence (P05182 2-493): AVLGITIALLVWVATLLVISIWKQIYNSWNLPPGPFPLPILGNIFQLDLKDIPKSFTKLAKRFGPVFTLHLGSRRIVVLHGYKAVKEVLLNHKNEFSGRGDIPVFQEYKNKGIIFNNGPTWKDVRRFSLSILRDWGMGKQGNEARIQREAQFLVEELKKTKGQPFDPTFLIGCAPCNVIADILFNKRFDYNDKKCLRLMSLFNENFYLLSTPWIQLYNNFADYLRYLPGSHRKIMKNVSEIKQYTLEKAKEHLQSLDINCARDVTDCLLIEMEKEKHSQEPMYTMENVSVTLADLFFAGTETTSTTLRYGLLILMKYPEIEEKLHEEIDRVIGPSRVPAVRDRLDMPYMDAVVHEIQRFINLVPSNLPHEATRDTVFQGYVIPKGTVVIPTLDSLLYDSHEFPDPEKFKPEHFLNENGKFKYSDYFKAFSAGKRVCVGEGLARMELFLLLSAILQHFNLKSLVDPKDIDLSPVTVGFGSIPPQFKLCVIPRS
Chain of CYP2E1 (Rattus norvegicus, UniProt P05182) (P05182 2-493): as above
Chain of Rabbit CYP2E1 (P08682 whole entry): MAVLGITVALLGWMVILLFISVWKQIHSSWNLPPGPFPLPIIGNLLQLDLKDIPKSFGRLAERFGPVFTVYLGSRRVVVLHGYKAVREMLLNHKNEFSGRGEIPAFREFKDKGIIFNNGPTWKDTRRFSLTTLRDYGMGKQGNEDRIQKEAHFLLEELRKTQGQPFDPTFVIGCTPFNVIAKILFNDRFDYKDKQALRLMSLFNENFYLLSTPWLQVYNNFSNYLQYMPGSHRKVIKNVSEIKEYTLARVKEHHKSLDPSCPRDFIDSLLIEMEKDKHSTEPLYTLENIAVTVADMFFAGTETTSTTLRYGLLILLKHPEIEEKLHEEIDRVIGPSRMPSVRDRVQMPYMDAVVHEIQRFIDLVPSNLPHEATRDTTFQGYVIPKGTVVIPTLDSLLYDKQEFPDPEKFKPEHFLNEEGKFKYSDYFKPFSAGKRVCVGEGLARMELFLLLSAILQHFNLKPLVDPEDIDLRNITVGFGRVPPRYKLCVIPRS

Take `O=C(n1ccnc1)C(F)(F)F` [1-(trifluoroacetyl)-imidazole]: the Ki at 10 min at CYP2E1 [1] (pH 7.4, pKi, Log (1/Ki)) is 251 µM. `Cn1ccnc1` [1-methylimidazole] showed a Ki at 10 min on CYP2E1 [1] (pH 7.4, pKi, Log (1/Ki)) of 6.31 µM. Compound `Cc1cccc(C)n1` [2,6-lutidine] showed a Ki at 10 min on CYP2E1 [1] (pH 7.4, pKi, Log (1/Ki)) of 398 µM. As to `Oc1ccc2ccccc2n1` [2-hydroxyquinoline], the Ki at 10 min was 931 µM on CYP2E1 [2] (pH 7.4, Ki); 1000 µM at CYP2E1 [2] (pH 7.4, pKi); 1000 µM on CYP2E1 [2] (pH 7.4, pKi±stdev).

In turn, `Cc1cc[nH]n1` [3-methylpyrazole] yielded a Ki at Rabbit CYP2E1 (setting [4]) of 5.4 µM. Compound `Cc1cnc2ccccc2c1` [3-methylquinoline] had a Ki at 10 min at CYP2E1 [1] (pH 7.4, pKi, Log (1/Ki)) of 100 µM. In turn, `CCCOc1cn[nH]c1` [4-O-propylpyrazole] yielded a pKi at Rabbit CYP2E1 (Log (1/Ki), substituted pyrazoles, purified rabbit CYP2E1, p-nitrophenol) of 6.1. For the same compound, the Ki at Rabbit CYP2E1 (substituted pyrazoles, purified rabbit CYP2E1, p-nitrophenol as substrate) came out at 0.79 µM. On Rabbit CYP2E1 (setting [4]), `CC(=O)Nc1cn[nH]c1` [4-acetylaminopyrazole] came in with a Ki of 5750 µM. For `Cc1n[nH]cc1Br` [4-bromo-3-methylpyrazole], the affinity at Rabbit CYP2E1 (setting [4]), expressed as Ki, was 3 µM. On to `OCc1c[nH]cn1` [4-hydroxymethylimidazole], for which, at CYP2E1 [1] (pH 7.4, pKi, Log (1/Ki)), affinity was put at a Ki at 10 min of 501 µM. For `Oc1ccnc2ccccc12` [4-hydroxyquinoline], the Ki at 10 min was 592 µM at CYP2E1 [2] (pH 7.4, Ki) and 631 µM at CYP2E1 [2] (pH 7.4, pKi). As for `Ic1cn[nH]c1` [4-iodopyrazole], the Ki at Rabbit CYP2E1 (setting [4]) was found to be 1 µM. As to `O=[N+]([O-])c1c[nH]cn1` [4-nitroimidazole], the inhibition constant (Ki) at 10 min was 12.6 µM on CYP2E1 [1] (pH 7.4, pKi, Log (1/Ki)) and 12.6 µM on CYP2E1 [1] (setting [5]). As for `O=[N+]([O-])c1cn[nH]c1` [4-nitropyrazole], at Rabbit CYP2E1 (setting [4]), the inhibitory constant (Ki) is 21 µM. On Rabbit CYP2E1 (setting [4]), `CCCCCc1cn[nH]c1` [4-pentylpyrazole] had a Ki of 0.06 µM. This Ki lies about 350-fold lower than the previous one. `CCCc1cn[nH]c1` [4-propylpyrazole]: the Ki on Rabbit CYP2E1 (setting [4]) is 0.16 µM; on Rabbit CYP2E1 (pKi±stdev, Table 3 test set, substituted pyrazole, purified rabbit CYP2E1, p-nitrophenol), 0.158 µM.

In the case of `Oc1ccc2ncccc2c1` [6-hydroxyquinoline], the Ki at 10 min was 218 µM at CYP2E1 [2] (pH 7.4, Ki) and 200 µM on CYP2E1 [2] (pH 7.4, pKi). Turning to `Oc1cccc2cccnc12` [8-hydroxyquinoline], the Ki at 10 min at CYP2E1 [1] (pH 7.4, pKi, Log (1/Ki)) is 79.4 µM.

In the case of `CCCCn1ccnc1` [N-(n-butyl)imidazole], the pKi on CYP2E1 [3] amounted to 6.2. As to `COC(=O)c1ccncc1` [methyl isonicotinate], the pKi at CYP2E1 [3] came to 5.6. Moreover, the “pKi±stdev” value on CYP2E1 [3] (Table 3 test set) is on record as 5.6±0.1.

As to `COC(=O)c1cccnc1` [methyl nicotinate], the Ki at 10 min on CYP2E1 [1] (pH 7.4, pKi, Log (1/Ki)) is 20 µM. `c1cn[nH]c1` [pyrazole] registered a pKi on CYP2E1 [3] of 4.4. Consider `c1ccncc1` [pyridine], for which the affinity at CYP2E1 [1] (pH 7.4, pKi, Log (1/Ki)), expressed as Ki at 10 min, was 12.6 µM. On to `c1ccc2ncccc2c1` [quinoline], for which the Ki at 10 min on CYP2E1 [1] (pH 7.4, pKi, Log (1/Ki)) was 63.1 µM; at CYP2E1 [1] (setting [5]), 63.1 µM.

In general, Ki refers to the equilibrium dissociation constant of an inhibitor or competing ligand from its target. What is called pKi is −log10 of the Ki, conventionally taken in molar units. A higher pKi goes with a low Ki.

These data come from PMC3129366 (Chemico-biological interactions, 2011).
